Values quoted from earlier work as cited in patent publication US20240032557A1, “AN IRON FORTIFIED TEA COMPOSITION” (Ekaterra Tea Manufacturing USA LLC, priority 2020, published 2024).

Conditions: water at 25° C.

O=C([O-])/C=C/C(=O)[O-].[Fe+2] [ferrous fumarate]
solubility: 0.14 g/100 g water
